Measured values reported in patent publication US20250018019A1, “TREATMENT OF INTERFERON DRIVEN INFLAMMATION” (The Provost, Fellows, Foundation Scholars and the other …, priority 2023, published 2025).

How the values were obtained:
Assay type in all cases: cell-based, mouse
BMDMs [1] = experiment: LC-MS steady-state metabolomics / fumarate levels in BMDMs; settings: BMDMs, AOAA 5 mM pre-treatment, LPS 4 h
Experimental: (§1) All compounds used DMSO as a vehicle except for 4-hydroxy tamoxifen (EtOH), NAC (PBS), and AOAA for tracing experiments (Media). LPS was used at a concentration of 100 ng/ml for indicated timepoints (2, 3, 4, 6, 8, 24, 48 h). FHIN1 (10 or 20 μM), MMF (50 or 100 μM), DMF (25 μM), AOAA (5 mM), oligomycin (10 μM), CCCP (50 μM) NAC (1 mM), and IMT1 (10 μM) pre-treatments were performed for 3 h prior the addition of LPS. Cells were treated with valinomycin (10 nM) 15 mins before LPS stimulation. Anti-CD210 or IgG control (10 μg/ml) antibodies were added to cells 1 h prior to LPS stimulation. Recombinant mouse IL-10 protein (100 ng/ml) was added to cells at the same time as LPS. Cells were treated with IFN-B1 (220 ng/ml) for 3 h. Cells were treated with C-178 (1 μM) 1 h prior to LPS stimulation or transfection with 2′3′-cGAMP (1.5 μg/ml) for 4 hrs to achieve cGAS-STING activation. Cells were treated with ODN 2088 (1 μM) for 1 hr prior to LPS stimulation or transfection with CPG ODN 1826 (1.5 μg/ml) to achieve TLR9 activation. 3 different timepoints of 4-hydroxy tamoxifen (TAM) (600 nM or 2 μM) or EtOH treatment were performed-these are specified in the individual figure legends. For ‘48 h’ treatments EtOH/TAM was added on day 5 of 6 during the BMDM differentiation protocol. On day 6 they were plated with EtOH/TAM (left overnight) and treated the following day. For ‘72 h’ treatments EtOH/TAM was added on day […] of 6 during the BMDM differentiation protocol. On day 6 they were plated with EtOH/TAM (left overnight) and treated the following day. For ‘96 h’ treatments EtOH/TAM was added on day […] of 6 during the BMDM differentiation protocol. On day 6 they were plated with EtOH/TAM and treated 2 days later.
BMDMs (3 independent mice) were plated at 0.5×10^6 cells/well in 12-well plates in technical triplicate per condition, treated as indicated, snap frozen and stored at −80° C. For metabolomics on cytosolic fraction, BMDMs were plated at 10×10^6 cells/10 cm dish and rapid fractionation was performed as previously reported^16. Metabolite extraction solution (MES) (methanol/acetonitrile/water, 50:30:20 v/v/v) was added (0.5 mL per 1×10^6 cells) and samples were incubated for 15 min on dry ice. The resulting suspension was transferred to ice-cold microcentrifuge tubes. Samples were agitated for 20 min at 4° C. in a thermomixer and then incubated at −20° C. for 1 h. Samples were centrifuged at maximum speed for 10 min at 4° C. The supernatant was transferred into a new tube and centrifuged again at maximum speed for 10 min at 4° C. The supernatant was transferred to autosampler vials and stored at −80° C. prior to analysis by LC-MS.
HILIC chromatographic separation of metabolites was achieved using a Millipore Sequant ZIC-PHILIC analytical column (5 μm, 2.1×150 mm) equipped with a 2.1×20 mm guard column (both […] particle size) with a binary solvent system. Solvent A was 20 mM ammonium carbonate, 0.05% ammonium hydroxide; Solvent B was acetonitrile. The column oven and autosampler tray were held at 40° C. and 4° C., respectively. The chromatographic gradient was run at a flow rate of 0.200 mL/min as follows: 0-2 min: 80% B; 2-17 min: linear gradient from 80% B to 20% B; 17-17.1 min: linear gradient from 20% B to 80% B; 17.1-22.5 min: hold at 80% B. Samples were randomized and analysed with LC-MS in a blinded manner and the injection volume was 5 μl. Pooled samples were generated from an equal mixture of all individual samples and analysed interspersed at regular intervals within sample sequence as a quality control. Metabolites were measured with a Thermo Scientific Q Exactive Hybrid Quadrupole-Orbitrap Mass spectrometer (HRMS) coupled to a Dionex Ultimate 3000 UHPLC or with Vanquish Horizon UHPLC coupled to an Orbitrap Exploris 240 mass spectrometer (both Thermo Fisher Scientific) via a heated electrospray ionization source. […]

BMDMs [2] = experiment: Stable isotope-assisted tracing (15N2-glutamine) in BMDMs; settings: 15N2-glutamine tracing, LPS-treated BMDMs, LPS 4 h
Experimental: All compounds used DMSO as a vehicle except for 4-hydroxy tamoxifen (EtOH), NAC (PBS), and AOAA for tracing experiments (Media). LPS was used at a concentration of 100 ng/ml for indicated timepoints (2, 3, 4, 6, 8, 24, 48 h). FHIN1 (10 or 20 μM), MMF (50 or 100 μM), DMF (25 μM), AOAA (5 mM), oligomycin (10 μM), CCCP (50 μM) NAC (1 mM), and IMT1 (10 μM) pre-treatments were performed for 3 h prior the addition of LPS. Cells were treated with valinomycin (10 nM) 15 mins before LPS stimulation. Anti-CD210 or IgG control (10 μg/ml) antibodies were added to cells 1 h prior to LPS stimulation. Recombinant mouse IL-10 protein (100 ng/ml) was added to cells at the same time as LPS. Cells were treated with IFN-B1 (220 ng/ml) for 3 h. Cells were treated with C-178 (1 μM) 1 h prior to LPS stimulation or transfection with 2′3′-cGAMP (1.5 μg/ml) for 4 hrs to achieve cGAS-STING activation. […]
BMDMs (3 independent mice) were plated at 0.5×10^6 cells/well in 12-well plates in technical triplicate per condition, treated as indicated in glutamine-free DMEM supplemented with U-^13C-glutamine or ^15N2-glutamine, respectively. For ^13C- and ^15N-tracing analysis, the theoretical masses of ^13C and ^15N isotopes were calculated and added to a library of predicted isotopes in Tracefinder 5.0. […]

BMDMs [3] = experiment: ELISA of cytokine release from BMDMs; settings: BMDMs pre-treated 3 h, LPS 4 h
Experimental: as §1
Pre-designed silencer select siRNAs for Cgas (s103166), Tmem173 (s91058), Tlr3 (s100579), Tlr9 (s96268), As/(s99640), Tlr7 (s100720), Ddx58 (s106376), Ifih1 (s89787), Nrf2 (s70522), Atf4 (s62689) and negative control (4390843) were ordered from Thermo Fisher. siRNA sequences are given in Table S2. Cells were transfected with 50 nM siRNA using 5 μl lipofectamine RNAiMAX according to manufacturer's instructions (Thermo Fisher). Cells were transfected in medium without serum and antibiotics which was replaced with complete medium 8 hours later. Cells were subsequently left for at least a further 12 hours prior to treatment.
BMDMs were plated in the presence or absence of ultrapure ethidium bromide (100 ng/ml) and incubated for a further 6 days prior to treatment. Depletion of mtDNA was determined by genomic DNA isolation followed by qPCR using primers specific for areas of mitochondrial DNA (D-loop) and areas of mtDNA that are not inserted into nuclear DNA (Non-NUMT).
DuoSet ELISA kits for IL-1β, TNFα, IL-6, IL-10, and GDF15 were purchased from R&D Systems and were carried out according to the manufacturer's instructions with appropriately diluted cell supernatants added to each plate in duplicate or triplicate. IFN-β was determined using DuoSet ELISA kit from R&D Systems or Abcam (ab252363). Quantikine ELISA kit for IFN-β (R&D Systems) was used for determination of IFN-β concentration in serum samples and from human cells, and these were also carried out according to the manufacturer's instructions. Absorbance at 450 nm was quantified using a FLUOstar Optima plate reader. Corrected absorbance values were calculated by subtracting the background absorbance, and cytokine concentrations were subsequently obtained by extrapolation from a standard curve plotted on GraphPad Prism 9.2.0.

Question: What does the source list for `NOCC(=O)O` [AOAA, aminooxyacetic acid]?
Answer: aspartate, asparagine, argininosuccinate levels following LPS stimulation (BMDMs [1]): reduced; fumarate levels following LPS stimulation (BMDMs [1]): reduced; contribution of glutamine nitrogen to aspartate, asparagine, arginine and citrulline (BMDMs [2]): completely prevented; IL-10 release (BMDMs [3]): modestly increased; TNF-α release (BMDMs [3]): reduced
